We go through 29 compounds from ChEMBL document CHEMBL1145507, “X-ray structural analysis of Plasmodium falciparum enoyl acyl carrier protein reductase as a pathway toward the optimization of triclosan antimalarial efficacy” (J Biol Chem, 2007).

Assay [1] has as its system Plasmodium falciparum. Kind of assay: Antimalarial activity against Plasmodium falciparum 3D7 by reduced [3H]hypoxanthine uptake. The assay is classed as functional, organism-based.
Assay [2] relates to Plasmodium falciparum. Kind of assay: Antimalarial activity against Plasmodium falciparum Dd2 by reduced [3H]hypoxanthine uptake. The assay is classed as functional, organism-based.
The target in assay [3] is T1, Enoyl-acyl-carrier protein reductase (Plasmodium falciparum, UniProt Q965D5).
T1 sequence (Q965D5 whole entry): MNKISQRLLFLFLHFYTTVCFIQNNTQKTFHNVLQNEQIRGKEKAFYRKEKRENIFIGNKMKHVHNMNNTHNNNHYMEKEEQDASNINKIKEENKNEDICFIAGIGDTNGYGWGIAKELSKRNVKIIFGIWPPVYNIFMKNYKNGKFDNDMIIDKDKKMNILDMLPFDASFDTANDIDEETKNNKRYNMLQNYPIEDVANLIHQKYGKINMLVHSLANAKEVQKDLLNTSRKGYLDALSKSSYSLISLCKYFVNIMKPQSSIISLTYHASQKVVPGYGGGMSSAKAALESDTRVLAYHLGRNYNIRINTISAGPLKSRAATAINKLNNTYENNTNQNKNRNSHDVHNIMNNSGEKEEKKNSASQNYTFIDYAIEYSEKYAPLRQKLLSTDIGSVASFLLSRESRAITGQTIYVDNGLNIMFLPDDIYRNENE
Kind of assay: Inhibition of Plasmodium falciparum ENR.

The subject of assay [4] is Plasmodium falciparum. Kind of assay: Antimalarial activity against Plasmodium falciparum Dd2. In kind it is functional, organism-based.
Assay [5] concerns Plasmodium falciparum. Kind of assay: Antimalarial activity against Plasmodium falciparum 3D7. The assay is classed as functional, organism-based.
Assay [6] has as its system Plasmodium falciparum. Kind of assay: Antimalarial activity against Plasmodium falciparum 3D7 expressing katG. In kind it is functional, organism-based.
The subject of assay [7] is Plasmodium falciparum. Kind of assay: Antimalarial activity against Plasmodium falciparum Dd2 expressing katG. In kind it is functional, organism-based.

Each structure is given as a SMILES string. pEC50, pIC50: −log10 of the molar value. A value given as a limit tells only on which side of the number the result lay.

For `Oc1cc(-c2cccnc2)ccc1Oc1ccc(Cl)cc1Cl`, the results for the pEC50 in the assay on Plasmodium falciparum [1] and in the assay with Plasmodium falciparum [2] were 4.64 and 4.41, respectively. This compound showed a pIC50 in assay [3] of 4.48.
As for `N#Cc1ccc(Oc2ccc(-c3ccccn3)cc2O)c(Cl)c1`, the pEC50 in the assay with Plasmodium falciparum [1] was 5.09; in the assay with Plasmodium falciparum [2] it was 4.92. In assay [3], this compound showed a pIC50 of 6.15.
The corresponding values for `Cc1ccc(-c2ccc(Oc3ccc(Cl)cc3Cl)c(O)c2)cc1` are 5.54, 5.37 and 6.72.
Regarding `Cc1ccc(Oc2ccc(Cl)cc2Cl)c(O)c1`, the pEC50 in the assay with Plasmodium falciparum [1] is 5.00; in the assay on Plasmodium falciparum [2], 4.85. Also, in assay [3], the negative logarithm of the IC50 (pIC50) was 6.70.
In the case of `Oc1cc(Cl)ccc1Oc1ccc(Cl)cc1Cl` [TRICLOSAN], the pEC50 is 5.55 in the assay on Plasmodium falciparum [1] and 5.42 in the assay on Plasmodium falciparum [2].
As to `Oc1cc(Cc2ccccc2)ccc1Oc1ccc(Cl)cc1Cl`, the pEC50 with Plasmodium falciparum [1] is 4.96; in the assay on Plasmodium falciparum [2], 4.92. Also, in assay [3], the negative-log IC50 (pIC50) was 7.15.
On to `Oc1cc(CC2CCCCC2)ccc1Oc1ccc(Cl)cc1Cl`, for which the pEC50 in the assay on Plasmodium falciparum [1] is 5.47; in the assay on Plasmodium falciparum [2] it was 5.32. In assay [3], the pIC50 was 6.28.
For the compound `Oc1cc(-c2ccc(F)cc2)ccc1Oc1ccc(Cl)cc1Cl`, the results for the pEC50 in the assay with Plasmodium falciparum [1] and with Plasmodium falciparum [2] were 5.68 and 5.51, respectively. The compound further had a pIC50 in assay [3] of 7.42.
Turning to `CCC(C)Cc1ccc(Oc2ccc(Cl)cc2Cl)c(O)c1` (configuration not stated), the pEC50 with Plasmodium falciparum [1] was 5.70; with Plasmodium falciparum [2] it was 5.54. The pIC50 in assay [3] was 6.54.
The corresponding values for `CCCc1ccc(Oc2ccc(Cl)cc2Cl)c(O)c1` are 5.60, 5.52 and 6.68.
The like results for `Cc1ccccc1-c1ccc(Oc2ccc(Cl)cc2Cl)c(O)c1` were, in that order, 5.80, 5.60 and 6.36.
As for `Oc1cc(-c2nn[nH]n2)ccc1Oc1ccc(Cl)cc1Cl`, the pEC50 in the assay on Plasmodium falciparum [1] and in the assay with Plasmodium falciparum [2] was below 4.00 throughout. The compound also had a pIC50 in assay [3] below 4.00.
On to `O=C(O)c1ccc(Oc2ccc(Cl)cc2Cl)c(O)c1`, for which the pEC50 with Plasmodium falciparum [1] and with Plasmodium falciparum [2] was below 4.00 in each case. The compound further showed a pIC50 in assay [3] below 4.00.
For the compound `Oc1cc(CCCc2ccccc2)ccc1Oc1ccc(Cl)cc1Cl`, the pEC50 is 5.19 in the assay on Plasmodium falciparum [1] and 5.14 in the assay on Plasmodium falciparum [2]. This compound had a pIC50 in assay [3] of 6.36.
Consider `CCc1ccc(Oc2ccc(Cl)cc2Cl)c(O)c1`, for which the negative-log EC50 (pEC50) was 5.34 with Plasmodium falciparum [1] and 5.22 in the assay with Plasmodium falciparum [2]. This compound showed a pIC50 in assay [3] of 6.96.
The corresponding values for `Cc1cccc(-c2ccc(Oc3ccc(Cl)cc3Cl)c(O)c2)c1` are 5.46, 5.21 and 6.64.
The like results for `CCCCc1ccc(Oc2ccc(Cl)cc2Cl)c(O)c1` were, in that order, 5.46, 5.49 and 6.32.
The corresponding values for `NC(=O)c1ccc(Oc2ccc(Cl)cc2Cl)c(O)c1` are 4.40, 4.35 and 4.68.
Consider `Cc1ccccc1-c1ccc(Oc2ccc(C#N)cc2Cl)c(O)c1`, for which the pEC50 in the assay on Plasmodium falciparum [1] is 5.59; in the assay on Plasmodium falciparum [2], 5.48. For the same compound, the pIC50 in assay [3] was 6.39.
The corresponding values for `Oc1cc(CCc2ccccc2)ccc1Oc1ccc(Cl)cc1Cl` are 5.25, 4.96 and 7.12.
Regarding `NNC(=O)c1ccncc1` [ISONIAZID], the pIC50 in the assay on Plasmodium falciparum [4] is 2.74; in the assay with Plasmodium falciparum [5], 2.92; in the assay on Plasmodium falciparum [6], 2.92; with Plasmodium falciparum [7], 2.74.
For `CC(C)CCc1ccc(Oc2ccc(Cl)cc2Cl)c(O)c1`, the pEC50 in the assay with Plasmodium falciparum [1] is 5.13; in the assay with Plasmodium falciparum [2], 5.10. The pIC50 in assay [3] is 6.92.
The like results for `N#Cc1ccc(Oc2ccc(-c3ccncc3)cc2O)c(Cl)c1` were, in that order, 4.96, 4.96 and 5.55.
The like results for `Oc1cc(Cc2cccnc2)ccc1Oc1ccc(Cl)cc1Cl` were, in that order, 5.16, 4.96 and 6.08.
As to `CC(C)Cc1ccc(Oc2ccc(Cl)cc2Cl)c(O)c1`, the pEC50 with Plasmodium falciparum [1] was 5.70; in the assay on Plasmodium falciparum [2] it was 5.55. In addition, the pIC50 in assay [3] was 6.74.
The like results for `N#Cc1ccc(Oc2ccc(Cc3ccncc3)cc2O)c(Cl)c1` were, in that order, 5.13, 4.89 and 6.28.
The like results for `N#Cc1ccc(Oc2ccc(Cl)cc2Cl)c(O)c1` were, in that order, 4.72, 4.66 and 7.31.
Regarding `Oc1cc(-c2ccccc2)ccc1Oc1ccc(Cl)cc1Cl`, the values for the pEC50 in the assay with Plasmodium falciparum [1] and with Plasmodium falciparum [2] were 5.64 and 5.41, respectively. Also, the pIC50 in assay [3] is 6.85.
The like results for `Oc1cc(Cc2ccccn2)ccc1Oc1ccc(Cl)cc1Cl` were, in that order, 5.12, 4.89 and 6.19.
